Measurements published in ChEMBL document CHEMBL1158413, “Design, synthesis and evaluations of acridone derivatives using Candida albicans--search for MDR modulators led to the identification of an anti-candidiasis agent” (2009).
In brackets after ≈: the same amount, converted by molar mass. Activity calls are given as the source filed them. The rule behind the calls is not given here.

Experiments:
DC3F/ADX [1] = assay: Binding affinity to P-gp isolated from chinese hamster DC3F/ADX cells assessed as increase in ADP formation by drug-P-gp interaction assay relative to basal; assay type: cell-free; settings: Cricetulus griseus
Candida albicans [2] = assay: Antifungal activity against Candida albicans CAI4 after 48 hrs; assay type: functional; settings: CAI4, 48 h
Candida albicans [3] = assay: Antifungal activity against Candida albicans CAI4 at 0.2 mg/ml after 48 hrs by spot assay; assay type: functional, organism-based
Candida albicans [4] = assay: Antifungal activity against Candida albicans CAI4 at 0.5 mg/ml after 48 hrs by spot assay; assay type: functional, organism-based
Candida albicans [5] = assay: Antifungal activity against Candida albicans CAI4 at 6 ug/disk after 24 hrs by disk diffusion assay; assay type: functional; settings: CAI4, 24 h, read-out: DIZ
DC3F/ADX [6] = assay: Binding affinity to P-gp isolated from chinese hamster DC3F/ADX cells assessed as increase in ADP formation at 0.05 uM by drug-P-gp interaction assay relative to basal; assay type: cell-free; settings: Cricetulus griseus
Candida albicans [7] = assay: Antifungal activity against Candida albicans CAI4 at 200 ug/disk after 24 hrs by disk diffusion assay; assay type: functional; settings: CAI4, 24 h, read-out: DIZ
Candida albicans [8] = assay: Antifungal activity against Candida albicans CAI4 at 0.313 mg/ml after 48 hrs by spot assay; assay type: functional, organism-based
Candida albicans [9] = assay: Inhibition of cell-wall integrity in Candida albicans CAI4 assessed as increase in Rhodamine-6G efflux at 230 ug/ml in absence of glucose; assay type: functional, organism-based
Candida albicans [10] = assay: Inhibition of cell-wall integrity in Candida albicans CAI4 assessed as increase in Rhodamine-6G influx at 230 ug/ml; assay type: functional, organism-based
Candida albicans [11] = assay: Antifungal activity against Candida albicans CAI4 at 160 ug/ml in presence of cell-wall toxin CFW; assay type: functional, organism-based
Candida albicans [12] = assay: Antifungal activity against Candida albicans CAI4 at 160 ug/ml in presence of cell-wall toxin CR; assay type: functional, organism-based
Candida albicans [13] = assay: Inhibition of cell-wall integrity in Candida albicans CAI4 assessed as ratio of glucose/ATP-driven Rhodamine-6G efflux to Rhodamine-6G efflux in absence of glucose/ATP at 230 ug/ml relative to control; assay type: functional, organism-based

Cc1cccc2c1c(=O)c1ccccc1n2CC(O)CN1CCC(N2CCCCC2)CC1 (configuration not stated)
Activity (DC3F/ADX [1]): Active

O=C(O)c1cccc2c(=O)c3ccccc3n(CC(O)CN3CCCCC3)c12 (configuration not stated)
MIC80 (Candida albicans [2]): 405 mg/L (≈ 1060 µM)
Activity (DC3F/ADX [1]): Active
Activity (Candida albicans [3]): inactive
Activity (Candida albicans [4]): inactive

Cc1cccc2c1c(=O)c1ccccc1n2CC(O)CN1CCCC1 (configuration not stated)
Activity (DC3F/ADX [1]): Active

O=C(O)c1cccc2c(=O)c3ccccc3n(CC3CO3)c12 (configuration not stated)
Activity (DC3F/ADX [1]): Active

Clc1ccc(COC(Cn2ccnc2)c2ccc(Cl)cc2Cl)c(Cl)c1 (configuration not stated) [MICONAZOLE]
zone of inhibition at 6 µg/disc (Candida albicans [5]): 12 mm

O=C(O)c1cccc2c(=O)c3ccccc3[nH]c12
Activity (DC3F/ADX [1]): Active

O=C(O)c1cccc2c(=O)c3ccccc3n(CC(O)CN3CCCC3)c12 (configuration not stated)
Activity (DC3F/ADX [1]): Active

Cc1cccc2c1c(=O)c1ccccc1n2CC(O)CN1CCOCC1 (configuration not stated)
Activity (DC3F/ADX [1]): Active

Cc1cccc2c1c(=O)c1ccccc1n2CC(O)CN1CCCCC1 (configuration not stated)
Activity (DC3F/ADX [1]): Active

OC(Cn1cncn1)(Cn1cncn1)c1ccc(F)cc1F [FLUCONAZOLE]
zone of inhibition at 6 µg/disc (Candida albicans [5]): 15 mm

O=C(O)c1cccc2c(=O)c3ccccc3n(CC(O)CN3CCOCC3)c12 (configuration not stated)
MIC80 (Candida albicans [2]): 132 mg/L (≈ 345 µM)
Activity (DC3F/ADX [1]): Active
Activity (Candida albicans [3]): inactive
Activity (Candida albicans [4]): inactive

O=C(O)c1cccc2c(=O)c3ccccc3n(CC(O)CN3CCC(N4CCCCC4)CC3)c12 (configuration not stated)
MIC80 (Candida albicans [2]): 234 mg/L (≈ 505 µM)
Activity (DC3F/ADX [6]): 33%
Activity (DC3F/ADX [1]): Active
zone of inhibition at 200 µg/disc (Candida albicans [7]): 10 mm
Activity (Candida albicans [8]): Active
Activity (Candida albicans [9]): Active
Activity (Candida albicans [10]): Active
Activity (Candida albicans [11]): Active
Activity (Candida albicans [12]): Active
Activity (Candida albicans [13]): inactive
